Data reported in ChEMBL document CHEMBL1201862, “PubChem BioAssay data set” (2004).
The source made the active and inactive calls.

Legend:
[1] = target: T1, Neuropeptide Y receptor type 1 (Homo sapiens, UniProt P25929); format: functional;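 also: HEK293 cells with a CNG channel challenged with NPY then isoproterenol; potency as antagonist that reverses NPY suppression of cAMP signal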
T1 sequence (P25929 whole entry): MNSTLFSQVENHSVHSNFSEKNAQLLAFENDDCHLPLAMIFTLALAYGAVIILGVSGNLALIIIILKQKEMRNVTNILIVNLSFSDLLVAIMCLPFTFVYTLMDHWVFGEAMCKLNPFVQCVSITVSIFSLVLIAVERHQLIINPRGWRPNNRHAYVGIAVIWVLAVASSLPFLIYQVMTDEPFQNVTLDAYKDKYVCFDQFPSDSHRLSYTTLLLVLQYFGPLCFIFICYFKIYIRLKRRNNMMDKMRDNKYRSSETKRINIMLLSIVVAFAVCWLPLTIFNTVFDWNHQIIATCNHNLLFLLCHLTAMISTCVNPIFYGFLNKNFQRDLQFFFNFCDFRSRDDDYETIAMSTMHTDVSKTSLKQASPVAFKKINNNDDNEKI

[2] = target: T2, Neuropeptide Y receptor type 2 (Homo sapiens, UniProt P49146); format: functional, cell-based;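 also: HEK293 cells expressing the receptor and a CNG channel; stimulus was NPY near EC95 followed by isoproterenol to raise cAMP; antagonist potency measured as restoring cAMP signal that NPY suppresses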
T2 sequence (P49146 whole entry): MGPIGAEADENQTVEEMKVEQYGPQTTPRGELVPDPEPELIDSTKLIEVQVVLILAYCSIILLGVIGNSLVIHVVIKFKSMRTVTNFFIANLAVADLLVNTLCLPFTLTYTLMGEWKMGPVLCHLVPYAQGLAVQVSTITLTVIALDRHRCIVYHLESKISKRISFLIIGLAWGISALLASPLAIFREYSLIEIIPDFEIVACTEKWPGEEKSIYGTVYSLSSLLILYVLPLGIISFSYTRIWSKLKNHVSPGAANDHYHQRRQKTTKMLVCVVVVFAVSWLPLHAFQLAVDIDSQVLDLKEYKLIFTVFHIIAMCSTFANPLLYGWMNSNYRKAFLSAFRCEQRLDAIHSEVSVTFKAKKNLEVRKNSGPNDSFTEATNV

[3] = M. tuberculosis growth inhibition, HTS (AID 449762); format: functional
[4] = target: Epstein-Barr nuclear antigen 1 (Epstein-Barr virus (strain B95-8) (HHV-4) (Human herpesvirus 4), UniProt P03211); assay: inhibition of EBV nuclear antigen 1 DNA binding – biochemical, fluorescence polarization, 1536-well, dose response (AID 2381); set-up: species or system human gammaherpesvirus 4;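 also: fluorescence polarization of a Cy5 DNA probe bound by EBNA-1 protein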
[5] = target: Lytic switch protein BZLF1 (Epstein-Barr virus (strain B95-8) (HHV-4) (Human herpesvirus 4), UniProt P03206); assay: inhibition of BZLF1 ZTA DNA binding – biochemical, fluorescence polarization, Epstein-Barr virus, 1536-well, counter-screen for EBNA-1 inhibitor project, dose response (AID 2377); set-up: species or system human gammaherpesvirus 4;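 also: fluorescence polarization of Cy5-labelled ZRE DNA probe bound by purified Zta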
[6] = NIH-3T3 fibroblast cytotoxicity, dose response, cytotoxicity control, cell-based, fluorescence, Alamar Blue, secondary assay (AID 2327); format: functional;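 also: NIH-3T3 mouse fibroblasts cultured with fluconazole at 8 µg/mL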
BJ [7] = assay: BJ-TERT fibroblast viability loss – cell-based, RAS-independent, luminescence, dose response (AID 1933); format: functional; details: Homo sapiens
BJ [8] = assay: cells; format: functional, cell-based; details: Homo sapiens
[9] = fluconazole-exposed Candida albicans growth modulators – fluorescence, retest, confirmation (AID 2467); format: functional, cell-based
[10] = Trypanosoma cruzi growth suppression in host cells – NIH3T3 host cells, beta-gal luminescence, confirmation (AID 2044); format: functional, cell-based;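 also: intracellular parasites grown in NIH/3T3 mouse fibroblasts as host cells; luminescent beta-galactosidase reporter signal from transgenic T. cruzi replicating inside host cells; inhibitors lower the luminescence signal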
[11] = NIH3T3 cell viability loss – ATP luminescence, mouse fibroblasts, counter-screen, dose response (AID 2010); format: functional, cell-based;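 also: cells exposed to compound for about 90 hours before reading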
BJ [12] = assay: BJ-TERT-LT-ST fibroblast viability loss – cell-based, RAS-independent, luminescence, dose response (AID 1935); format: functional; details: Homo sapiens;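 also: BJ fibroblasts immortalized with TERT plus LT and ST oncogenes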
[13] = DRD fibroblast viability loss – cell-based, non-viral oncogenic, luminescence, dose response (AID 1934); format: functional; details: Homo sapiens
[14] = HEK-293T viability loss after treatment – luminescence, T-cell screen hits, cytotoxicity control for TCR NF-kB inhibitor project, dose response (AID 489026); format: functional, cell-based;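 also: cells exposed to compound about 14 hours before the viability readout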
Vero = assay: mammalian cell viability reduction – secondary assay, cytotoxicity control for West Nile virus antiviral project, dose response (AID 1650); format: functional; details: Chlorocebus sabaeus
[15] = viability of PTEN-deleted HCT116 cells – cell-based, HCT116 PTEN knockout, dose response (AID 1047); format: functional;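 also: HCT116 colon tumor cells with PTEN knocked out; cells exposed to compound for 60 hours before readout; potency for loss of cell viability measured by luminescence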
[16] = viability of HCT116 lacking mutant beta-catenin – cell-based, human colon tumor, dose response (AID 1045); format: functional;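 also: HCT116 colon tumor cells with beta catenin knocked out; cells exposed to compound for 60 hours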
[17] = target: E3 ubiquitin-protein ligase Mdm2 (Homo sapiens, UniProt Q00987); assay: MDM2-luc reporter signal enhancers, multi-concentration potency testing, MDM2 ubiquitin-protein ligase inhibitor program, whole-cell format, luminescence detection, 384-well microplate (AID 1394); format: functional;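 also: MDM2 E3 inhibitors raise luminescence so EC50 is for signal enhancement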
Cytochrome P450 2C19 = Cytochrome P450 2C19 (Homo sapiens, UniProt P33261); assay: Cytochrome panel assay with activity outcomes. Panel member name: p450-cyp2c19 Compounds with AC50 equal or less than 10 uM are considered active; format: functional; details: read-out: AC50
Cytochrome P450 1A2 = target: T3, Cytochrome P450 1A2 (Homo sapiens, UniProt P05177);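 also: PubChem cytochrome P450 panel assay, CYP1A2 panel member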
T3 sequence (P05177 whole entry): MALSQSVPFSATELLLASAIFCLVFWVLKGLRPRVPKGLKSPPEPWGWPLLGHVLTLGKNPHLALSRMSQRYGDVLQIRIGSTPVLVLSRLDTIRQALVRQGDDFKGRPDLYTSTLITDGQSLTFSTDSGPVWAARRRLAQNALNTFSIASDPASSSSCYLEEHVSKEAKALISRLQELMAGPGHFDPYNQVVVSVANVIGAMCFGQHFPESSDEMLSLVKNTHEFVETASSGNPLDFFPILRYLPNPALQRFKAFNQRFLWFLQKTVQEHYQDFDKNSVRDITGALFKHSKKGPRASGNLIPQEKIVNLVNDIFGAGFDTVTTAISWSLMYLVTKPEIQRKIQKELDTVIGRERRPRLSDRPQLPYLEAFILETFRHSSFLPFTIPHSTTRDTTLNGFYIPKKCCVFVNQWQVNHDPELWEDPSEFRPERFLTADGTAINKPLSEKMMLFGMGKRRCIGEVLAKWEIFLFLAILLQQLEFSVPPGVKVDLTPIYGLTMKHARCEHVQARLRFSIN

Cytochrome P450 2C9 = Cytochrome P450 2C9 (Homo sapiens, UniProt P11712)
[18] = target: T4, Induced myeloid leukemia cell differentiation protein Mcl-1 (Homo sapiens, UniProt Q07820); assay: blockers of MCL1 binding to BIM peptide – biochemical, fluorescence polarization, BIM-BH3 peptide, 1536-well, dose response (AID 2217)
Bcl-2-like protein 1 = Bcl-2-like protein 1 (Homo sapiens, UniProt Q07817); assay: blockers of BCLXL peptide binding – biochemical, fluorescence polarization, 1536-well, selectivity assay for MCL1 inhibitor project, dose response (AID 2218)
[19] = target: T4, Induced myeloid leukemia cell differentiation protein Mcl-1; format: functional
Cytochrome P450 2D6 = Cytochrome P450 2D6 (Homo sapiens, UniProt P10635);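 also: CYP2D6 member of a cytochrome P450 panel assay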
Cytochrome P450 3A4 = Cytochrome P450 3A4 (Homo sapiens, UniProt P08684);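 also: CYP3A4 tested as one member of a cytochrome P450 panel screen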
[20] = target: T5, Microphthalmia-associated transcription factor (Homo sapiens, UniProt O75030); assay: reducers of TRPM1 reporter luminescence, concentration series – cell-based, SK-MEL-5, cherry-picked, set 3, MITF inhibitor project, dose response (AID 493073); format: functional;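 also: SK-MEL-5 melanoma cells with luciferase driven by the MITF target TRPM1 promoter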
T5 sequence (O75030 whole entry): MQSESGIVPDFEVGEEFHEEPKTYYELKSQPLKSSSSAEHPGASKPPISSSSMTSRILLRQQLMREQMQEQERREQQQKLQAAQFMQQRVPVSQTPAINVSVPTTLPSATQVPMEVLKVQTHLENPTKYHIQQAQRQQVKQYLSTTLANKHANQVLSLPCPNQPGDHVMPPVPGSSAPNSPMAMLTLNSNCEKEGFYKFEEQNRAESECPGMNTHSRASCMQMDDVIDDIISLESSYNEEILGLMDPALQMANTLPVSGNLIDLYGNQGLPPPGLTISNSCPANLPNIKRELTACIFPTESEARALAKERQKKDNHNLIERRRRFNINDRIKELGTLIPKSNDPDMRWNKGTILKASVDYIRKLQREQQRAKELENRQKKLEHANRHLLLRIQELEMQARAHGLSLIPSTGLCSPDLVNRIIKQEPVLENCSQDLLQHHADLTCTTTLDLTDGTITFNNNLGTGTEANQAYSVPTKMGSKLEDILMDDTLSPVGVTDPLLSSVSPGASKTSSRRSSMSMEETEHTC

[21] = target: T6, RNA-binding protein pos-1 (Caenorhabditis elegans, UniProt G5EF15); assay: disruptors of C. elegans POS-1 RNA interaction – biochemical, fluorescence polarization, dose response (AID 1964);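 also: purified POS-1 fused to maltose binding protein made in E. coli; potency of compounds blocking POS-1 binding to fluorescent RNA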
T6 sequence (G5EF15 whole entry): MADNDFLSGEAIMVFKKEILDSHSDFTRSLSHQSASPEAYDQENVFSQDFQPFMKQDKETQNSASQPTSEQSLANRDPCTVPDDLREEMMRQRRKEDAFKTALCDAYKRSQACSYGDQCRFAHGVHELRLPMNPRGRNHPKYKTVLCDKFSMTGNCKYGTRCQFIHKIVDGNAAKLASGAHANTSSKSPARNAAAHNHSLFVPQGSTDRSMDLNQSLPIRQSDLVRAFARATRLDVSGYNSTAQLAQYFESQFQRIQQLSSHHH

[22] = target: T7, Zinc finger protein mex-5 (Caenorhabditis elegans, UniProt Q9XUB2); assay: potency of MEX-5 RNA-binding blockers – biochemical, C. elegans, fluorescence polarization, dose response (AID 1960)
T7 sequence (Q9XUB2 whole entry): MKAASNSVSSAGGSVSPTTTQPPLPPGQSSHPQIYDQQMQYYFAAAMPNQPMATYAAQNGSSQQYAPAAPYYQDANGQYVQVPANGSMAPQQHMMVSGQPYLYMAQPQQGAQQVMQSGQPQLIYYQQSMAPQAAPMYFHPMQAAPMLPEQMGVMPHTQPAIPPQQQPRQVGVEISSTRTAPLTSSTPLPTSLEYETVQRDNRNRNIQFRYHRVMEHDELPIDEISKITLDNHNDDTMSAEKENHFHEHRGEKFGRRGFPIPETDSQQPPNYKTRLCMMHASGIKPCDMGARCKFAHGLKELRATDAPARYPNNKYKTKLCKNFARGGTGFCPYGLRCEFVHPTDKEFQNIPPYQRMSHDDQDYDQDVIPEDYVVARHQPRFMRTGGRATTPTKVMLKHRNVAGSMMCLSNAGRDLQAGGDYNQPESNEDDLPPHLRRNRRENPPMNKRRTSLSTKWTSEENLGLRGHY

Genome polyprotein = Genome polyprotein (dengue virus type 2, UniProt P29990); assay: flavivirus cap methylation enzyme inhibition – biochemical, confirmation dose response, primary screen (AID 588689); format: functional
[23] = microbe, parasite or virus in culture; format: functional; details: Mycobacterium tuberculosis

T4 sequence (Q07820 whole entry): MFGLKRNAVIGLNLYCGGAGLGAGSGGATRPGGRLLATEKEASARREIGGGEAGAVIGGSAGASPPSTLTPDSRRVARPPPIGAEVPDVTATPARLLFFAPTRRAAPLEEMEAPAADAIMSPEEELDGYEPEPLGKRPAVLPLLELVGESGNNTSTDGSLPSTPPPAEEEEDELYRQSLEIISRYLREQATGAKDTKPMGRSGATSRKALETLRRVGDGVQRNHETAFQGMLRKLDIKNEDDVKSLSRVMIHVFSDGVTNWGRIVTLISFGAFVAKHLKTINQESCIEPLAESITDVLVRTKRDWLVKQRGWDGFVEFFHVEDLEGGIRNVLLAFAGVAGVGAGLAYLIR
Bcl-2-like protein 1, sequence (Q07817 whole entry): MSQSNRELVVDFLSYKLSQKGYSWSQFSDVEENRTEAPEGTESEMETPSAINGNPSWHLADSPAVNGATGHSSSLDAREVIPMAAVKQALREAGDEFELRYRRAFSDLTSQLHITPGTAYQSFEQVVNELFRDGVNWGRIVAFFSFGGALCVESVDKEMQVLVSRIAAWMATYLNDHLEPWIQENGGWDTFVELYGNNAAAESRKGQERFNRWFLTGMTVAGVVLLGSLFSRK
Cytochrome P450 2C19, sequence (P33261 whole entry): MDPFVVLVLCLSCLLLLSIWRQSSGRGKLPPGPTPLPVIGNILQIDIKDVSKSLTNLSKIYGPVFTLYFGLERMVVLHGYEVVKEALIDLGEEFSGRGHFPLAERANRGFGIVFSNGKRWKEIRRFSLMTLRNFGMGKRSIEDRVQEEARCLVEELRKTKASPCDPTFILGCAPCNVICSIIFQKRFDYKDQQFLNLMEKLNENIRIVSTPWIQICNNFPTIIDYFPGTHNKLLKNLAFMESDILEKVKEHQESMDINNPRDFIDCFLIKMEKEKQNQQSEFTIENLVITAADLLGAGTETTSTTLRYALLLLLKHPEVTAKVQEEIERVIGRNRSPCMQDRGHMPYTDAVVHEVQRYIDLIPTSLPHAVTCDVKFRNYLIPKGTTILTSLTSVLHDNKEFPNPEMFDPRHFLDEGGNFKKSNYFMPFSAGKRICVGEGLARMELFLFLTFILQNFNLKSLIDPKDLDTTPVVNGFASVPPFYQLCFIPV
Genome polyprotein, sequence (P29990 2492-3391 limits assumed): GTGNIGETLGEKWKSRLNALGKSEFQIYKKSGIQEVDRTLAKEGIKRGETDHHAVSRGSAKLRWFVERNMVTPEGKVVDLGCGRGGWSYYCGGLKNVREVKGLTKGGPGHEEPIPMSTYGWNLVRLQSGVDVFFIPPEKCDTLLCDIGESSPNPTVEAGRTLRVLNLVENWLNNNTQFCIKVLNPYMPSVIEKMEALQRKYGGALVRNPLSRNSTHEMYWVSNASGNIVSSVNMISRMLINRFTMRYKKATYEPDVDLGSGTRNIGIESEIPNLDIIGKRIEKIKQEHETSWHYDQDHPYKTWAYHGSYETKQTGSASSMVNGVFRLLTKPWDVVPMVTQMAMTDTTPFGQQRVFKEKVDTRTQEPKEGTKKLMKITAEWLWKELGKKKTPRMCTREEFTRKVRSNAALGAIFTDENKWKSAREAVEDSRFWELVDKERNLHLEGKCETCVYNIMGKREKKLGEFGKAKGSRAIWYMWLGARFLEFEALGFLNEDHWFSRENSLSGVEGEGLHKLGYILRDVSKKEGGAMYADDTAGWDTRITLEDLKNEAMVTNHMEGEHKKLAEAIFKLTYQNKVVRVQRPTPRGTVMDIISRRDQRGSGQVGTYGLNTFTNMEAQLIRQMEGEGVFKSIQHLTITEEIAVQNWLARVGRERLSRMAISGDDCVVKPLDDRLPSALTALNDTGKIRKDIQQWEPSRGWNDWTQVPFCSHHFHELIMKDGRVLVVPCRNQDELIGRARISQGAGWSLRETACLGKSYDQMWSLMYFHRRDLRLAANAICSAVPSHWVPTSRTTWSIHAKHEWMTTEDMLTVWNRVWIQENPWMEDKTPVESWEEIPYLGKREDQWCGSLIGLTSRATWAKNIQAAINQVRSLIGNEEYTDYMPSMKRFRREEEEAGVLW
Cytochrome P450 2D6, sequence (P10635 whole entry): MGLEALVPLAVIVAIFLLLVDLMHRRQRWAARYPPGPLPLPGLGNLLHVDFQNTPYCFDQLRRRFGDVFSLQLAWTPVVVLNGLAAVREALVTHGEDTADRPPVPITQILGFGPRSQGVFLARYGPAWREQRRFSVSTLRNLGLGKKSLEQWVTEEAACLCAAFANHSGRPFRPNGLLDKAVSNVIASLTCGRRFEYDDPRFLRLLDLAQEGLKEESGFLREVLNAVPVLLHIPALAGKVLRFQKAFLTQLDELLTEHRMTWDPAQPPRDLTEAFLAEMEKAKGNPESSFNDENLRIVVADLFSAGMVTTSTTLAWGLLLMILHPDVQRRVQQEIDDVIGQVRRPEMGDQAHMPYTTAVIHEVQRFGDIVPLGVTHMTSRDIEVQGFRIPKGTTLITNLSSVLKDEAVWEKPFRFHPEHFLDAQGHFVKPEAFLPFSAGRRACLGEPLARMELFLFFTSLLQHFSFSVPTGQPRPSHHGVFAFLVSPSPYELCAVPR
Epstein-Barr nuclear antigen 1, sequence (P03211 whole entry): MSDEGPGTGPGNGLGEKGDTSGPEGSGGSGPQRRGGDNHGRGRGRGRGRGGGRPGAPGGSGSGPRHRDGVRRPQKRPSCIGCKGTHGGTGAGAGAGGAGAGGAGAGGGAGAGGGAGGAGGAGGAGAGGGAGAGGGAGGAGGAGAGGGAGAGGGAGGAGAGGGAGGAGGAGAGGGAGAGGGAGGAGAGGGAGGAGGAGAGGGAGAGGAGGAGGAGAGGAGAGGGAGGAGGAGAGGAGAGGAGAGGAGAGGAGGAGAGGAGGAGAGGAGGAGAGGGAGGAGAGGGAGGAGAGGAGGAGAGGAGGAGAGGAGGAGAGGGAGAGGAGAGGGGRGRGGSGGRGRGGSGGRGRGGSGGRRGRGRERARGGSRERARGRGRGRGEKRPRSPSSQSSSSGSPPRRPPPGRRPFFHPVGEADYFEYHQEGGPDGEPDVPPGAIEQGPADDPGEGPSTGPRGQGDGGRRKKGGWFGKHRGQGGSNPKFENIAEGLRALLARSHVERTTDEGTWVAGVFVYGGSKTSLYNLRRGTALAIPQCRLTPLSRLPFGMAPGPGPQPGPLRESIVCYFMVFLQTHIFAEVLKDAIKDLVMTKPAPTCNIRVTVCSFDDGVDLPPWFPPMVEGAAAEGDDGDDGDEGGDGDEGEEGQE
E3 ubiquitin-protein ligase Mdm2, sequence (Q00987 whole entry): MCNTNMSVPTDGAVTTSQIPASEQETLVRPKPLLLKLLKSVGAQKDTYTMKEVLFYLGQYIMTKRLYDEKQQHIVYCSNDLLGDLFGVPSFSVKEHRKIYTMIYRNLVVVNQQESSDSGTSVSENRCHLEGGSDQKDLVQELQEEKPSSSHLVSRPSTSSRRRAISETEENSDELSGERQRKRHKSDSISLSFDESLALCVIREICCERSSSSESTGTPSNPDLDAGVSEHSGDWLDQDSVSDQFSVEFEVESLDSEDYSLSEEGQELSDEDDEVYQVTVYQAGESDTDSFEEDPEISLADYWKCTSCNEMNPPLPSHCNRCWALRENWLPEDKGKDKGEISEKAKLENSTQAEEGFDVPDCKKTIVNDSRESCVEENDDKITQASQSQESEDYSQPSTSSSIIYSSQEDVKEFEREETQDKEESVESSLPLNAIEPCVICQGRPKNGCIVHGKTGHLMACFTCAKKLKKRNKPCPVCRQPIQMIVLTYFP
Lytic switch protein BZLF1, sequence (P03206 whole entry): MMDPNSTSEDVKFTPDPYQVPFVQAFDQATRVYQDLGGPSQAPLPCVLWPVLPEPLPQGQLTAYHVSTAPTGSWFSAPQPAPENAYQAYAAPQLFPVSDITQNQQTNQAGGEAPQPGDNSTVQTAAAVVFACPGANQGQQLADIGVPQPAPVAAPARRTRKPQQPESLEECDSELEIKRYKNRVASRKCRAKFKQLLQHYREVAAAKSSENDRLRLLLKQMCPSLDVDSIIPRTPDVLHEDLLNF
Cytochrome P450 3A4, sequence (P08684 whole entry): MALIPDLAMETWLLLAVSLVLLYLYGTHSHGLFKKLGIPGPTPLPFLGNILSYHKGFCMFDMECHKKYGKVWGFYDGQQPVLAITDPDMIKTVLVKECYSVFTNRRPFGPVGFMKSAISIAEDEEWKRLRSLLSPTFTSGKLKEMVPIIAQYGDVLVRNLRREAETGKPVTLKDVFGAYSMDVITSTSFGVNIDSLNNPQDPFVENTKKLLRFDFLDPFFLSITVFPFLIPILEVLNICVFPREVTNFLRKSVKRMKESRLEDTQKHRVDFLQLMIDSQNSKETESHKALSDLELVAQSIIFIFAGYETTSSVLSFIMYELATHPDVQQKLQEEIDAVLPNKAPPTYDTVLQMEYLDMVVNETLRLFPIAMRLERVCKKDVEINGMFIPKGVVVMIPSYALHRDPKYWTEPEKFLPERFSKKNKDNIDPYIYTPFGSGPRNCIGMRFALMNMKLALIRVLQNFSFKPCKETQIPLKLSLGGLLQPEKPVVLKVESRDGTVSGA
Cytochrome P450 2C9, sequence (P11712 whole entry): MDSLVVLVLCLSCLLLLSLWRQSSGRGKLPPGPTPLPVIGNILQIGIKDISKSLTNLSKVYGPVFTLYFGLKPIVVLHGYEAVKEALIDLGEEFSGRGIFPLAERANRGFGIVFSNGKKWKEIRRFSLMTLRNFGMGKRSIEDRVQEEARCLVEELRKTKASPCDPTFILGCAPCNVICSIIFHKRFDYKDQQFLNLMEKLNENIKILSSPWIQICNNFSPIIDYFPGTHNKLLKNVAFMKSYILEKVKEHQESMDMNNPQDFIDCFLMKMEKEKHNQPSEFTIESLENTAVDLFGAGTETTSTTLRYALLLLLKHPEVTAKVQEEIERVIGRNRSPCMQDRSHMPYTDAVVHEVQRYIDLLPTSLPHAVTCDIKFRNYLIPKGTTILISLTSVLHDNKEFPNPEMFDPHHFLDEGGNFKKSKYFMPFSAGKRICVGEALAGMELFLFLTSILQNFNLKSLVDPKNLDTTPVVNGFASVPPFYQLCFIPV

CCSc1nc2ccc(OC)cc2cc1C#N
IC50 [1]: 11.1 µM (not active) | IC50 [2]: 17.8 µM (not active)

CCCc1ncc(CN2CCCC(C(=O)Nc3ccc(-c4cccc(OC)c4)cc3)C2)cn1 (configuration not stated)
IC50 [3]: > 100 µM (active)

COc1ccc2oc(C(=O)OCC(=O)Nc3ccc(NC(C)=O)cc3)c(C)c2c1
IC50 [4]: 4.71 µM (active) | IC50 [5]: > 111 µM (not active)

Cc1ccc2c(c1)sc(-c1ccc(N(C)C)cc1)[n+]2C
EC50 [6]: > 160 µM (inactive) | EC50 (BJ [7]): 3.83 µM (active) | EC50 (BJ [8]): 0.609 µM (active) | EC50 [9]: 0.039 µM (active) | EC50 [10]: < 0.1 µM (active) | EC50 [11]: > 60 µM (not active) | EC50 (BJ [12]): 20.9 µM (inconclusive) | EC50 [13]: 14.5 µM (active) | IC50 [14]: > 80 µM (inactive) | EC50 (cells): < 0.004 µM (active)

COc1ccc(-c2cc(-c3ccc(C)cc3)nc(SCc3nnc(-c4ccccc4)o3)c2C#N)cc1OC
CC50 (Vero): 14.1 µM (active) | EC50 [15]: 4.41 µM (active) | EC50 [16]: 4.36 µM (active)

CCN(CC(=O)Nc1ccc(N2CCOCC2)cc1)Cc1nc2ccccc2c(=O)[nH]1
EC50 [17]: 0.03 µM (not active) | AC50 (Cytochrome P450 2C19): 22.4 µM (inconclusive) | AC50 (Cytochrome P450 1A2): 20 µM (inconclusive)

Clc1ccccc1CSc1nnc(/C=C/c2ccccc2)o1
IC50 [1]: 6.96 µM (active) | IC50 [2]: 8.09 µM (active) | AC50 (Cytochrome P450 2C9): 7.94 µM (inconclusive)

O=C(N/N=C/c1ccncc1)c1cc([N+](=O)[O-])cc([N+](=O)[O-])c1O
IC50 [18]: > 36.3 µM (not active) | IC50 (Bcl-2-like protein 1): > 109 µM (not active) | IC50 [19]: 3.25 µM (active) | AC50 (Cytochrome P450 2C19): 2.51 µM (inconclusive) | AC50 (Cytochrome P450 2D6): 14.1 µM (inconclusive) | AC50 (Cytochrome P450 1A2): 5.01 µM (inconclusive) | AC50 (Cytochrome P450 3A4): 1 µM (inconclusive)

C/C(=N/NC(=O)C(O)(c1ccccc1)c1ccccc1)c1ccc([N+](=O)[O-])o1
EC50 [10]: < 0.1 µM (active) | EC50 [11]: > 60 µM (not active) | AC50 [20]: 9.84 µM (active) | EC50 (cells): 0.222 µM (active)

Cc1nc2ccccc2c(=O)n1/N=C/c1ccc(O)c(O)c1O
EC50 [21]: 12.9 µM (active) | EC50 [22]: 0.193 µM (active) | IC50 [18]: 2.07 µM (active) | IC50 (Bcl-2-like protein 1): > 109 µM (not active) | IC50 (Genome polyprotein): > 100 µM (active)

C/C(=N\NC(=O)c1cc2c(s1)CCC(C)C2)c1ccncc1 (configuration not stated)
IC50 [3]: > 100 µM (active) | CC50 [23]: > 40 µM (active)
